Experimental data reported in patent publication US20230355597A1, “COMPOUNDS, COMPOSITIONS, AND METHODS FOR THE TREATMENT AND PREVENTION OF AVIAN PATHOGENIC E. COLI (APEC)” (OHIO STATE INNOVATION FOUNDATION, priority 2018, published 2023).
In brackets after ≈: the same amount, converted by molar mass. Marks after values point to notes of the source that are not given here.

What was measured:
APEC O78 [1] = assay type: cell-based, avian pathogenic Escherichia coli (APEC)
APEC O1 = assay type: cell-based, avian pathogenic Escherichia coli (APEC); conditions: APEC O1, M63 media; MIC/MBC
APEC O2 = assay type: cell-based, avian pathogenic Escherichia coli (APEC); conditions: APEC O2, M63 media; MIC/MBC
APEC O8 = assay type: cell-based, avian pathogenic Escherichia coli (APEC); conditions: APEC O8, M63 media; MIC/MBC
APEC O15 = assay type: cell-based, avian pathogenic Escherichia coli (APEC); conditions: APEC O15, M63 media; MIC/MBC
APEC O18 = assay type: cell-based, avian pathogenic Escherichia coli (APEC); conditions: APEC O18, M63 media; MIC/MBC
APEC O35 = assay type: cell-based, avian pathogenic Escherichia coli (APEC); conditions: APEC O35, M63 media; MIC/MBC
APEC O115 = assay type: cell-based, avian pathogenic Escherichia coli (APEC); conditions: APEC O115, M63 media; MIC/MBC
APEC O109 = assay type: cell-based, avian pathogenic Escherichia coli (APEC); conditions: APEC O109, M63 media; MIC/MBC
APEC O78-53 = assay type: cell-based, avian pathogenic Escherichia coli (APEC); conditions: APEC O78-53, M63 media; MIC/MBC
APEC O1-63 = assay type: cell-based, avian pathogenic Escherichia coli (APEC); conditions: APEC O1-63, M63 media; MIC/MBC
APEC O2-211 = assay type: cell-based, avian pathogenic Escherichia coli (APEC); conditions: APEC O2-211, M63 media; MIC/MBC
[2] = system: Shiga toxin-producing (STEC) O157 and O26 strains; assay type: cell-based, E. coli; conditions: 100 µM, M63 media
[3] = system: biofilm embedded APEC O78; experiment: MBEC High-throughput assay; assay type: cell-based, avian pathogenic Escherichia coli (APEC); conditions: biofilm embedded APEC O78; superscript = multiple of MIC (footnote)
APEC O78 [4] = experiment: Confocal microscopy bacterial cytological profiling; assay type: cell-based, avian pathogenic Escherichia coli (APEC); conditions: 2X MBC
Procedure: Confocal and scanning electron microscopy. Confocal microscopy was used for bacterial cytological profiling (BCP) to identify the cellular pathways targeted by SMs as described previously. […] After incubation, treated cultures were centrifuged, washed, and resuspended in 100 μL PBS. […] Cultures were then centrifuged, washed, and resuspended in PBS to 1⁄10th volume of the original cultures.

APEC O78 [5] = experiment: Loss of 260/280 nm absorbing materials assay; assay type: cell-based, avian pathogenic Escherichia coli (APEC); conditions: 2X MBC, 1 h, *P<0.05 vs DMSO
[6] = system: intracellular APEC O78 in Caco-2 cells; experiment: Intracellular survival assay (cidal SMs); conditions: O78, Caco-2, 6 h treatment; superscript = multiple of MIC
[7] = system: intracellular APEC O78 in HD11 cells; experiment: Intracellular survival assay (cidal SMs); conditions: O78, HD11, 6 h treatment; superscript = multiple of MIC
[8] = system: intracellular APEC O78 in THP-1 cells; experiment: Intracellular survival assay (cidal SMs); conditions: O78, THP-1, 6 h treatment; superscript = multiple of MIC
[9] = system: intracellular APEC O2 in Caco-2 cells; experiment: Intracellular survival assay (cidal SMs); conditions: O2, Caco-2, 6 h treatment; superscript = multiple of MIC
[10] = system: intracellular APEC O2 in HD11 cells; experiment: Intracellular survival assay (cidal SMs); conditions: O2, HD11, 6 h treatment; superscript = multiple of MIC
[11] = system: intracellular APEC O2 in THP-1 cells; experiment: Intracellular survival assay (cidal SMs); conditions: O2, THP-1, 6 h treatment; superscript = multiple of MIC
[12] = system: intracellular APEC O1 in Caco-2 cells; experiment: Intracellular survival assay (cidal SMs); conditions: O1, Caco-2, 6 h treatment; superscript = multiple of MIC
[13] = system: intracellular APEC O1 in HD11 cells; experiment: Intracellular survival assay (cidal SMs); conditions: O1, HD11, 6 h treatment; superscript = multiple of MIC
[14] = system: intracellular APEC O1 in THP-1 cells; experiment: Intracellular survival assay (cidal SMs); conditions: O1, THP-1, 6 h treatment; superscript = multiple of MIC

SMILES: COc1ccc(CCN(Cc2cc3c(cc2Cl)OCO3)CC2CCN(C)CC2)cc1 [SM11]
- MBC relative to MIC (APEC O78 [1]; APEC O78): identical to MIC
- MIC (APEC O78 [1]; APEC O78, M63 media, MIC/MBC): 100 µM (≈ 43.1 µg/mL)
- MBC (APEC O78 [1]; APEC O78, M63 media, cell prints MIC/MBC): 100 µM (≈ 43.1 µg/mL)
- MBC (APEC O1): 100 µM (≈ 43.1 µg/mL)
- MIC (APEC O1): 100 µM (≈ 43.1 µg/mL)
- MBC (APEC O2): 200 µM (≈ 86.2 µg/mL)
- MIC (APEC O2): 100 µM (≈ 43.1 µg/mL)
- MBC (APEC O8): 200 µM (≈ 86.2 µg/mL)
- MIC (APEC O8): 200 µM (≈ 86.2 µg/mL)
- MBC (APEC O15): 100 µM (≈ 43.1 µg/mL)
- MIC (APEC O15): 100 µM (≈ 43.1 µg/mL)
- MBC (APEC O18): 200 µM (≈ 86.2 µg/mL)
- MIC (APEC O18): 200 µM (≈ 86.2 µg/mL)
- MBC (APEC O35): 200 µM (≈ 86.2 µg/mL)
- MIC (APEC O35): 100 µM (≈ 43.1 µg/mL)
- MBC (APEC O115): 200 µM (≈ 86.2 µg/mL)
- MIC (APEC O115): 200 µM (≈ 86.2 µg/mL)
- MBC (APEC O109): 200 µM (≈ 86.2 µg/mL)
- MIC (APEC O109): 200 µM (≈ 86.2 µg/mL)
- MBC (APEC O78-53): 200 µM (≈ 86.2 µg/mL)
- MIC (APEC O78-53): 100 µM (≈ 43.1 µg/mL)
- MBC (APEC O1-63): 200 µM (≈ 86.2 µg/mL)
- MIC (APEC O1-63): 100 µM (≈ 43.1 µg/mL)
- MBC (APEC O2-211): 100 µM (≈ 43.1 µg/mL)
- MIC (APEC O2-211): 100 µM (≈ 43.1 µg/mL)
- activity against STEC O157 and O26 strains [2]: not cidal
- MBEC [3]: 400^d µM
- cytological profile (confocal, FM4-64 / SYTO-9) (APEC O78 [4]): membrane pore formers
- Absorbance 260 (APEC O78 [5]; 260 nm absorbing material in supernatant): 4.00*
- Absorbance 280 (APEC O78 [5]; 280 nm absorbing material in supernatant): 2.89*
- SMs intracellular APEC clearance concentration [6]: 100^a µM
- SMs intracellular APEC clearance concentration [7]: 100^a µM
- SMs intracellular APEC clearance concentration [8]: 100^a µM
- SMs intracellular APEC clearance concentration [9]: 200^b µM
- SMs intracellular APEC clearance concentration [10]: 200^b µM
- SMs intracellular APEC clearance concentration [11]: 100^a µM
- SMs intracellular APEC clearance concentration [12]: >200 µM
- SMs intracellular APEC clearance concentration [13]: 200^b µM
- SMs intracellular APEC clearance concentration [14]: >200 µM
